One experiment concerns IL-1β. The experiment is described as follows: PBMC assay: IL-1β release after LPS stimulation. In kind it is cell-based. As to conditions: human PBMCs, 30 min preincubation, 100 ng/ml LPS for 6 hrs, supernatant, MSD technology. The protocol:
(§1) Peripheral venous blood was collected from healthy individuals and human peripheral blood mononuclear cells (PBMCs) were isolated from blood by Ficoll-Histopaque (Sigma-Aldrich, A0561) density gradient centrifugation. After isolation, PBMCs were stored in liquid nitrogen for later use. Upon thawing, PBMC cell viability was determined in growth medium (RPMI media supplemented with 10% fetal bovine serum, 1% Pen-Strep and 1% L-glutamine). Compounds were spotted in a 1:3 serial dilution in DMSO and diluted to the final concentration in 30 μl medium in 96 well plates (Falcon, 353072). PBMCs were added at a density of 7.5×10^4 cells per well and incubated for 30 min in a 5% CO2 incubator at 37° C. LPS stimulation was performed by addition of 100 ng/ml LPS (final concentration, Invivogen, tirl-smlps) for 6 hrs followed by collection of cellular supernatant and the analysis of IL-1β (μM) and TNF cytokines levels (μM) via MSD technology according to manufacturers' guidelines (MSD, K 151A0H).
(§2) The IC50 values (for IL-1β) and EC50 values (TNF) were obtained on compounds of the invention/examples, and are depicted in the following table: […]

A further experiment deals with TNF. Briefly: PBMC assay: TNF cytokine levels after LPS stimulation. In kind it is cell-based. Conditions: human PBMCs, 30 min preincubation, 100 ng/ml LPS for 6 hrs, supernatant, MSD technology. How it is done: as §1, §2

Molecules are shown by their SMILES.

In general, IC50 refers to the concentration that gives 50% inhibition. In general, EC50 refers to the concentration that produces a half-maximal response. Molecule `CCc1nn(CC(=O)N[C@H]2C[C@@](C)(O)C2)c(=O)c2ccc(C(C)C)nc12` [Compound 1] yielded an IC50 with IL-1β (Homo sapiens, PBMC) of 520 nM. The concentration for a half-maximal effect (EC50) in the experiment on TNF (Homo sapiens, PBMC) was determined as 10600 nM.

As for `CCc1nn(CC(=O)Nc2ccncn2)c(=O)c2ccc(C(C)C)nc12` [Compound 2], the IC50 in the experiment with IL-1β (Homo sapiens, PBMC) was determined as 1490 nM. The concentration for a half-maximal effect (EC50) in the experiment with TNF (Homo sapiens, PBMC) is more than 20000 nM.

`CCc1nn(CC(=O)Nc2ccncn2)c(=O)c2ccc(C3CC3)nc12` [Compound 3] came in with an IC50 in the experiment with IL-1β (Homo sapiens, PBMC) of 4490 nM. Further, the concentration for a half-maximal effect (EC50) in the experiment with TNF (Homo sapiens, PBMC) is more than 20000 nM.

Turning to `CCc1nn(CC(=O)N[C@H]2C[C@@](C)(O)C2)c(=O)c2ccc(C3CC3)nc12` [Compound 4], the 50% inhibitory concentration (IC50) with IL-1β (Homo sapiens, PBMC) came to 370 nM.

In the experiment with IL-1β (Homo sapiens, PBMC), `CCc1nn(CC(=O)Nc2ccc3nncn3c2)c(=O)c2ccc(C3CC3)nc12` [Compound 5] yielded a half-maximal inhibitory concentration (IC50) of 320 nM. The molecule also yielded an EC50 with TNF (Homo sapiens, PBMC) of 12900 nM.

For `CCc1ccc2c(=O)n(CC(=O)N[C@H]3C[C@@](C)(O)C3)nc(CC)c2n1` [Compound 6], half-maximal inhibition in the experiment with IL-1β (Homo sapiens, PBMC) (IC50) was put at 780 nM. The molecule also yielded an EC50 with TNF (Homo sapiens, PBMC) of 17800 nM.

Regarding `CCc1nn(CC(=O)Nc2ccc3nncn3c2)c(=O)c2ccc(OC)nc12` [Compound 7], half-maximal inhibition in the experiment on IL-1β (Homo sapiens, PBMC) (IC50) required 6770 nM. In the experiment on TNF (Homo sapiens, PBMC), this molecule registered a half-maximal effective concentration (EC50) of more than 20000 nM.

For `CC(C)c1nn(CC(=O)Nc2ccc3nncn3c2)c(=O)c2ccc(C(C)(F)F)nc12` [Compound 8], in the experiment on IL-1β (Homo sapiens, PBMC), the midpoint of inhibition, the IC50, lay at 120 nM. The same molecule gave a concentration giving a half-maximal response (EC50) in the experiment on TNF (Homo sapiens, PBMC) of 17000 nM.

With `CN(C)c1nn(CC(=O)Nc2ccc3nncn3c2)c(=O)c2ccc(C(F)(F)F)nc12` [Compound 9], the IC50 in the experiment on IL-1β (Homo sapiens, PBMC) was 320 nM. The EC50 in the experiment on TNF (Homo sapiens, PBMC) was more than 20000 nM.

In turn, `CN(C)c1nn(CC(=O)Nc2ccc3nncn3c2)c(=O)c2ccc(C(C)(F)F)nc12` [Compound 10] displayed a 50% inhibitory concentration (IC50) with IL-1β (Homo sapiens, PBMC) of 300 nM. Besides, the EC50 in the experiment with TNF (Homo sapiens, PBMC) is more than 20000 nM.

`CC(C)c1nn(CC(=O)Nc2ccc3cnn(C(=O)OC(C)(C)C)c3c2)c(=O)c2ccc(C(F)(F)F)nc12` [Compound 11, tert-butyl 6-(2-(8-isopropyl-5-oxo-2-(trifluoromethyl)pyrido[2,3-d]pyridazin-6(5H)-yl)acetamido)-1H-indazole-1-carboxylate] registered a half-maximal inhibitory concentration (IC50) with IL-1β (Homo sapiens, PBMC) of 520 nM. This molecule returned an EC50 in the experiment on TNF (Homo sapiens, PBMC) of more than 20000 nM.

In turn, `CC(C)c1nn(CC(=O)NC2CCOCC2)c(=O)c2ccc(C(F)(F)F)nc12` [Compound 12] gave a half-inhibitory concentration (IC50) with IL-1β (Homo sapiens, PBMC) of 780 nM. The molecule further showed a concentration giving a half-maximal response (EC50) in the experiment with TNF (Homo sapiens, PBMC) of more than 20000 nM.

`CC(C)c1nn(CC(=O)Nc2ccc3nncn3c2)c(=O)c2ccc(C(F)(F)F)nc12` [Compound 13]: the IC50 in the experiment with IL-1β (Homo sapiens, PBMC) was found to be 100 nM. Moreover, the 50% effective concentration (EC50) in the experiment on TNF (Homo sapiens, PBMC) is more than 20000 nM.

Regarding `CC(C)c1nn(CC(=O)N[C@H]2C[C@@](C)(O)C2)c(=O)c2ccc(C(F)(F)F)nc12` [Compound 14], half-maximal inhibition in the experiment on IL-1β (Homo sapiens, PBMC) (IC50) was put at 50 nM. The molecule further came in with an EC50 in the experiment with TNF (Homo sapiens, PBMC) of more than 20000 nM.

For `CC(C)c1nn(CC(=O)Nc2ccc3nccn3c2)c(=O)c2ccc(C(F)(F)F)nc12` [Compound 15], the IC50 with IL-1β (Homo sapiens, PBMC) was 390 nM. Also, the EC50 in the experiment on TNF (Homo sapiens, PBMC) was more than 20000 nM.

`CC(C)c1nn(CC(=O)Nc2ccc(=O)n(C)c2)c(=O)c2ccc(C(F)(F)F)nc12` [Compound 16]: the midpoint of inhibition with IL-1β (Homo sapiens, PBMC), the IC50, lay at 330 nM. In the experiment on TNF (Homo sapiens, PBMC), this molecule displayed a half-maximal effective concentration (EC50) of more than 20000 nM.

With `Cc1cc(NC(=O)Cn2nc(C(C)C)c3nc(C(F)(F)F)ccc3c2=O)ccn1` [Compound 17], the IC50 in the experiment with IL-1β (Homo sapiens, PBMC) amounted to 480 nM. In the experiment with TNF (Homo sapiens, PBMC), this molecule returned a concentration for a half-maximal effect (EC50) of 16600 nM.

`CC(C)c1nn(CC(=O)Nc2ccnnc2)c(=O)c2ccc(C(F)(F)F)nc12` [Compound 18] gave a half-inhibitory concentration (IC50) in the experiment on IL-1β (Homo sapiens, PBMC) of 410 nM. In the experiment with TNF (Homo sapiens, PBMC), this molecule returned a concentration for a half-maximal effect (EC50) of 12600 nM.

In turn, `CC(C)c1nn(CC(=O)Nc2cncnc2)c(=O)c2ccc(C(F)(F)F)nc12` [Compound 19] returned an IC50 in the experiment on IL-1β (Homo sapiens, PBMC) of 60 nM. In the experiment with TNF (Homo sapiens, PBMC), this molecule had a concentration for a half-maximal effect (EC50) of 11800 nM.

In the experiment on IL-1β (Homo sapiens, PBMC), `CC(C)c1nn(CC(=O)Nc2ccc3nncn3n2)c(=O)c2ccc(C(F)(F)F)nc12` [Compound 20, N-([1,2,4]triazolo[4,3-b]pyridazin-6-yl)-2-(8-isopropyl-5-oxo-2-(trifluoromethyl)pyrido[2,3-d]pyridazin-6(5H)-yl)acetamide] showed a half-inhibitory concentration (IC50) of 2930 nM. Besides, the EC50 in the experiment on TNF (Homo sapiens, PBMC) is more than 20000 nM.

`CC(C)c1nn(CC(=O)Nc2ccc3nncn3n2)c(=O)c2ccc(C(C)(F)F)nc12` [Compound 21] showed a half-inhibitory concentration (IC50) in the experiment on IL-1β (Homo sapiens, PBMC) of 70 nM. In addition, the concentration giving a half-maximal response (EC50) in the experiment on TNF (Homo sapiens, PBMC) is 2870 nM.

For `CN(C)c1nn(CC(=O)Nc2ccc3nncn3n2)c(=O)c2ccc(C(F)(F)F)nc12` [Compound 22], the concentration for half-maximal inhibition (IC50) with IL-1β is 150 nM. Further, in the experiment with TNF, the response was half-maximal at 5860 nM (EC50).

Take `CN(C)c1nn(CC(=O)Nc2ccc3nncn3n2)c(=O)c2ccc(C(F)(F)F)nc12` [Compound 23]: inhibition with IL-1β was half-maximal at 340 nM (IC50). The molecule further gave a half-maximal effective concentration (EC50) in the experiment on TNF of more than 20000 nM.

Molecule `CN(C)c1nn(CC(=O)Nc2ccc3nncn3n2)c(=O)c2ccc(C(C)(F)F)nc12` [Compound 24] yielded an IC50 in the experiment with IL-1β of 300 nM. The molecule further displayed a half-maximal effective concentration (EC50) in the experiment on TNF (Homo sapiens, PBMC) of more than 20000 nM.

`CN(C)c1nn(CC(=O)Nc2ccc3nncn3n2)c(=O)c2ccc(C(C)(F)F)nc12` [Compound 25] had a 50% inhibitory concentration (IC50) in the experiment on IL-1β of 750 nM. The EC50 in the experiment on TNF was more than 20000 nM.

`CC(C)c1nn(CC(=O)Nc2ccc3cn[nH]c3c2)c(=O)c2ccc(C(F)(F)F)nc12` [Compound 26, N-(1H-indazol-6-yl)-2-(8-isopropyl-5-oxo-2-(trifluoromethyl)pyrido[2,3-d]pyridazin-6(5H)-yl)acetamide]: the IC50 with IL-1β (Homo sapiens, PBMC) is 170 nM. The same molecule had an EC50 with TNF (Homo sapiens, PBMC) of more than 20000 nM.

The values above are taken from US20240279223A1, “5-OXO-PYRIDO[2,3-D]PYRIDAZIN-6(5H)-YL ACETAMIDES” (JANSSEN PHARMACEUTICA NV, priority 2021, published 2024).
